Results published in patent US8697372B2, “Method for determining the binding of a given compound to a membrane receptor” (CIS Bio International, priority 2009, dated 2014).

Target: T1, Delta Opioid receptor implicated in the heterodimer with Dopamine D2 (Homo sapiens, UniProt P41143)
T1 construct: membrane-addressing signal peptide T8 (printed '18') (N); expressed in transfected cells; host or cells: HEK293T/17 cells, transient co-transfection
Format: binding
Settings: 3 nM red antagonist of the opioid receptor, D2 receptor labeled with HALO-Lumi4Tb, HEK293T cells, FIG. 10

T1 sequence (P41143 whole entry): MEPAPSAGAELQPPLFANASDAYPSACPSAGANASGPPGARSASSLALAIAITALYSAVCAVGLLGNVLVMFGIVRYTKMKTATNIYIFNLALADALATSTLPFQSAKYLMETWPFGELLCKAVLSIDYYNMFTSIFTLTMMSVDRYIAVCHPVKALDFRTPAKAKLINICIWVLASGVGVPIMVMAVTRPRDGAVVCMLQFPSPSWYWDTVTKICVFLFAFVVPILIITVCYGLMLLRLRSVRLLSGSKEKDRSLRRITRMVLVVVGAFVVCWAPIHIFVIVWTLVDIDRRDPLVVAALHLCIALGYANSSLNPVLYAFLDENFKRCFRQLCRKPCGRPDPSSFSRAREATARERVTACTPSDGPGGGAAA
T1 sequence (P14416 1-414 isoform P14416-2 partner): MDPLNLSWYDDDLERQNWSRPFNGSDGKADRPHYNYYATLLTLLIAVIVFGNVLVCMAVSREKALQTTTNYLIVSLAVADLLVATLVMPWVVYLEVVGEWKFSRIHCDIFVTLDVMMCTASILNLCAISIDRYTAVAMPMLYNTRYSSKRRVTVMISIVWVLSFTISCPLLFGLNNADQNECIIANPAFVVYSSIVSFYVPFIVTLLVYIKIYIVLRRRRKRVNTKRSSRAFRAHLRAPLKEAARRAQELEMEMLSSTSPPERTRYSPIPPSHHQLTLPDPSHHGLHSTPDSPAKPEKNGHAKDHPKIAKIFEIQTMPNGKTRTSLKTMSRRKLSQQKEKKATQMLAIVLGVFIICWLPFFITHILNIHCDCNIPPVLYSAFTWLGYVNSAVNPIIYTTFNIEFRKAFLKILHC

SMILES | Competition with the fluorescent reference ligand and binding to the heterodimers
C=CCN1C[C@H](C)N([C@@H](c2ccccc2)c2ccc(C(=O)N(CC)CC)cc2)C[C@H]1C [SNC-162] | compete with the fluorescent reference ligand and bind to the heterodimers
Oc1ccc2c3c1O[C@H]1c4[nH]c5ccccc5c4C[C@@]4(O)[C@@H](C2)N(CC2CC2)CC[C@]314 [Naltrindole] | compete with the fluorescent reference ligand and bind to the heterodimers
